The target of one assay is human (hACC2) (Homo sapiens, UniProt O00763). In words: In vitro ACC inhibition assay (ADP-Glo), hACC2. It counts as biochemical. As to conditions: Table 2b, additional results, 5 nM ACC2, 20 μM ATP, 20 μM acetyl-CoA. Here is the method: The detailed procedure is as follows. […] 10 μL ADP glo reagent was added. […] 20 μL kinase detection reagent was added.
The subject of the next assay is C. albicans. The assay is described as follows: Antifungal Activity Assay (broth microtiter MIC), C. albicans. In kind it is cell-based, Candida albicans. The conditions noted are these: Candida albicans, ATCC90028, 48 h. The procedure, abridged:
(§1)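 Colonies from 24 h Sabouraud dextrose agar plates (35° C) are suspended in RPMI 1640+MOPS and diluted to give 2.5×10^3 CFU/mL in the wells. Plates are set up per CLSI M27-A3. Visual MIC is recorded at 48 h.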

The next assay concerns C. krusei. The assay is described as follows: Antifungal Activity Assay (broth microtiter MIC), C. krusei. In kind it is cell-based, Candida krusei. The conditions noted are these: Pichia kudriavzevii, ATCC6258, 48 h. In short, it runs like this: as §1
Another assay concerns C. parapsilosis. The assay is described as follows: Antifungal Activity Assay (broth microtiter MIC), C. parapsilosis. In kind it is cell-based, Candida parapsilosis. The conditions noted are these: Lodderomyces parapsilosis, ATCC22019, 48 h. In short, it runs like this:
as §1

Another assay has as its system Botrtyis cinerea (Bc). In words: Growth inhibition assay of fungal pathogens, Bc. In kind it is cell-based. The conditions noted are these: 48 h, growth inhibition at 48 hours vs 2% DMSO control. The procedure, abridged:
(§2)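 Spore suspension in 17% V8 liquid media; cpd final 50/10/2 or 2/0.4/0.08 ppm, 2% DMSO. OD600 + visual, 24 & 48 h; % inhibition at 48 h vs 2% DMSO ctrl.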

Assay [1] has as its system Collectotrichum graminicola (Cg). The assay is described as follows: Growth inhibition assay of fungal pathogens, Cg. In kind it is cell-based. As to conditions: 48 h, growth inhibition at 48 hours vs 2% DMSO control. In short, it runs like this:
as §2

In another assay the test system is Diplodia maydis (Dm). The assay is described as follows: Growth inhibition assay of fungal pathogens, Dm. It counts as cell-based. The conditions noted are these: Stenocarpella maydis, 48 h, growth inhibition at 48 hours vs 2% DMSO control. The procedure, abridged: as §2
Assay [2] relates to Fusarium moniliforme (Fm). The assay is described as follows: Growth inhibition assay of fungal pathogens, Fm. It counts as cell-based. As to conditions: Fusarium verticillioides, 48 h, read-out: Concentration at 90% Inhibition Fm. The procedure, abridged:
as §2

Assay [3] concerns Fusarium virguliforme (Fv). The assay is described as follows: Growth inhibition assay of fungal pathogens, Fv. It counts as cell-based. As to conditions: 48 h. In short, it runs like this: as §2
Assay [4] has as its system Phytophthora capsici (Pc). In words: Growth inhibition assay of fungal pathogens, Pc. In kind it is cell-based. As to conditions: 48 h. The procedure, abridged: as §2
For another assay, the system named is Rhizoctonia solani (Rs). In words: Growth inhibition assay of fungal pathogens, Rs. It counts as cell-based. As to conditions: 48 h.
A further assay concerns Septoria tritici (St). The assay is described as follows: Growth inhibition assay of fungal pathogens, St. It counts as cell-based. The conditions noted are these: Zymoseptoria tritici, 48 h, growth inhibition at 48 hours vs 2% DMSO control. The procedure, abridged: as §2
In the next assay the target is fungal (fACC2) (UniProt Q00955). The conditions noted are these: read-out: fACC2 (in vitro ACC2 Inhibition Assay, IC50); Table 2b, additional results; ADP-Glo, 5 nM ACC2, 20 μM ATP, 20 μM acetyl-CoA.
Chain of fungal (fACC2) (Q00955 whole entry): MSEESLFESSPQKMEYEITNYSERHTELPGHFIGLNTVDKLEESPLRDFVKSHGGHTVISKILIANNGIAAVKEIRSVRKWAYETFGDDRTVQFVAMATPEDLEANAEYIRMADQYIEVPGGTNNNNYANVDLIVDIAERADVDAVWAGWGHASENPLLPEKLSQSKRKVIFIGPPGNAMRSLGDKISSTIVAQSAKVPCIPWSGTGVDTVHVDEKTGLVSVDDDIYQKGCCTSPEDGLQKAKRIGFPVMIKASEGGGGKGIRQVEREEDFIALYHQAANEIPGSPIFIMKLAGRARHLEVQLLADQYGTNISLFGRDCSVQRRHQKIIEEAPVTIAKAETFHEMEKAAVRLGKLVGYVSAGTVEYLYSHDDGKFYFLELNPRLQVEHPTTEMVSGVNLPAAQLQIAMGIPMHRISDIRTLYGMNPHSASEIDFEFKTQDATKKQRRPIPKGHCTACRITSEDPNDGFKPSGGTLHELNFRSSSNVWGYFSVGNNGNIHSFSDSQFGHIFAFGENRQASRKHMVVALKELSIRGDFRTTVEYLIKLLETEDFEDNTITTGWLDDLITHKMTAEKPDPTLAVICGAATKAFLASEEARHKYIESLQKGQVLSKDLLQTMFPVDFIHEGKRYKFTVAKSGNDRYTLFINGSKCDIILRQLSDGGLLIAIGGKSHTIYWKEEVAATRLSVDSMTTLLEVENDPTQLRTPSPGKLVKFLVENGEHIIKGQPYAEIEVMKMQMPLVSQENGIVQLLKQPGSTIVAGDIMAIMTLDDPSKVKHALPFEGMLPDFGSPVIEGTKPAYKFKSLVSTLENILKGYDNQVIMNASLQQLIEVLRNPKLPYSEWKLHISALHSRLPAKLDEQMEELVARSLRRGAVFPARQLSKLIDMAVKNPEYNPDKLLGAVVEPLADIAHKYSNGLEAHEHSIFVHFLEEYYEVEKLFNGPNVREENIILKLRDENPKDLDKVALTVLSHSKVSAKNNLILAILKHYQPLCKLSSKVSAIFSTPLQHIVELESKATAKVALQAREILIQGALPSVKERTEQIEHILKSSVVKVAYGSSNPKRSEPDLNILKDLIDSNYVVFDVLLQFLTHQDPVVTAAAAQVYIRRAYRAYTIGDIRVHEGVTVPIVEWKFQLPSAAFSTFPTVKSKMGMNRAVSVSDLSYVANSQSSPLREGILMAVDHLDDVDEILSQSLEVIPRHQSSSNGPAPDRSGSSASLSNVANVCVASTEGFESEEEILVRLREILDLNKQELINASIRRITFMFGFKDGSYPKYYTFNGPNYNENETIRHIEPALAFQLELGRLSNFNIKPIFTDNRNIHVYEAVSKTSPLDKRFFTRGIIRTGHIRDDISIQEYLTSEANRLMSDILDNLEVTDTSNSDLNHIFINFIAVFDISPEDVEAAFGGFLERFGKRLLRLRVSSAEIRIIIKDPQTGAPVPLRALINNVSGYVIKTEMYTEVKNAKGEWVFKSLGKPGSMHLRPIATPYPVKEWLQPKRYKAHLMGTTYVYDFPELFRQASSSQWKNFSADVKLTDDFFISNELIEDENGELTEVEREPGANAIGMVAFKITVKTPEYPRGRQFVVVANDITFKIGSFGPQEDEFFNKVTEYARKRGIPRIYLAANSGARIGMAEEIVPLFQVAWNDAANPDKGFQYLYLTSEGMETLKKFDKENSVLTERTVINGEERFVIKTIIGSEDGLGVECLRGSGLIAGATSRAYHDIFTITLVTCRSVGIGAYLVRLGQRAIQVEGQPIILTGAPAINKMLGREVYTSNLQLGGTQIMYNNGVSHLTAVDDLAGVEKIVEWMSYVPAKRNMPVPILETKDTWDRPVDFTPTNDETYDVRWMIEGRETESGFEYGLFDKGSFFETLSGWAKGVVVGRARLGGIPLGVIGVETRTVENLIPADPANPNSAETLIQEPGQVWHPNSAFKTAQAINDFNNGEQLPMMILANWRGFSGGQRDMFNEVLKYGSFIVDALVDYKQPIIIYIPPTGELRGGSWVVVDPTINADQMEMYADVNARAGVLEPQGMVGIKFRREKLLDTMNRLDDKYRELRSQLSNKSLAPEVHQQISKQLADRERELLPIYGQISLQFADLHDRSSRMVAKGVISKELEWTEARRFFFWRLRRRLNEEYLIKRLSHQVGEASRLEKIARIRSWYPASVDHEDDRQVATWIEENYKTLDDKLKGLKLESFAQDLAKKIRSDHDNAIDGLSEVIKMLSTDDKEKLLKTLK
[5] abbreviates: read-out: MIC, C. albicans ATCC 90028, Table 3b (additional results), 3 replicates, MIC recorded at 48 h.
[6] abbreviates: read-out: MIC, C. krusei ATCC 6258, Table 3b (additional results), 3 replicates, MIC recorded at 48 h.
Setting [7] is: read-out: MIC, C. parapsilosis ATCC 22019, Table 3b (additional results), 3 replicates, MIC recorded at 48 h.
Where [8] appears, read: read-out: Concentration at 90% Inhibition Bc, Botrtyis cinerea.
Setting [9] is: read-out: Concentration at 90% Inhibition Cg, Collectotrichum graminicola.
Setting [10] is: read-out: Concentration at 90% Inhibition Dm, Diplodia maydis.
Setting [11] is: read-out: Concentration at 90% Inhibition Fv, Fusarium virguliforme, growth inhibition at 48 hours vs 2% DMSO control.
Where [12] appears, read: read-out: Concentration at 90% Inhibition Pc, Phytophthora capsici, growth inhibition at 48 hours vs 2% DMSO control.
Setting [13] is: read-out: Concentration at 90% Inhibition Rs, Rhizoctonia solani, mycelial plugs, growth inhibition at 48 hours vs 2% DMSO control.
[14] abbreviates: read-out: Concentration at 90% Inhibition St, Septoria tritici.

Structures are written as SMILES. Values after ≈ are worked out from the molar mass of the structure shown. Read-outs that look alike come from different tables or passages of the source.

Chain of human (hACC2) (O00763 whole entry): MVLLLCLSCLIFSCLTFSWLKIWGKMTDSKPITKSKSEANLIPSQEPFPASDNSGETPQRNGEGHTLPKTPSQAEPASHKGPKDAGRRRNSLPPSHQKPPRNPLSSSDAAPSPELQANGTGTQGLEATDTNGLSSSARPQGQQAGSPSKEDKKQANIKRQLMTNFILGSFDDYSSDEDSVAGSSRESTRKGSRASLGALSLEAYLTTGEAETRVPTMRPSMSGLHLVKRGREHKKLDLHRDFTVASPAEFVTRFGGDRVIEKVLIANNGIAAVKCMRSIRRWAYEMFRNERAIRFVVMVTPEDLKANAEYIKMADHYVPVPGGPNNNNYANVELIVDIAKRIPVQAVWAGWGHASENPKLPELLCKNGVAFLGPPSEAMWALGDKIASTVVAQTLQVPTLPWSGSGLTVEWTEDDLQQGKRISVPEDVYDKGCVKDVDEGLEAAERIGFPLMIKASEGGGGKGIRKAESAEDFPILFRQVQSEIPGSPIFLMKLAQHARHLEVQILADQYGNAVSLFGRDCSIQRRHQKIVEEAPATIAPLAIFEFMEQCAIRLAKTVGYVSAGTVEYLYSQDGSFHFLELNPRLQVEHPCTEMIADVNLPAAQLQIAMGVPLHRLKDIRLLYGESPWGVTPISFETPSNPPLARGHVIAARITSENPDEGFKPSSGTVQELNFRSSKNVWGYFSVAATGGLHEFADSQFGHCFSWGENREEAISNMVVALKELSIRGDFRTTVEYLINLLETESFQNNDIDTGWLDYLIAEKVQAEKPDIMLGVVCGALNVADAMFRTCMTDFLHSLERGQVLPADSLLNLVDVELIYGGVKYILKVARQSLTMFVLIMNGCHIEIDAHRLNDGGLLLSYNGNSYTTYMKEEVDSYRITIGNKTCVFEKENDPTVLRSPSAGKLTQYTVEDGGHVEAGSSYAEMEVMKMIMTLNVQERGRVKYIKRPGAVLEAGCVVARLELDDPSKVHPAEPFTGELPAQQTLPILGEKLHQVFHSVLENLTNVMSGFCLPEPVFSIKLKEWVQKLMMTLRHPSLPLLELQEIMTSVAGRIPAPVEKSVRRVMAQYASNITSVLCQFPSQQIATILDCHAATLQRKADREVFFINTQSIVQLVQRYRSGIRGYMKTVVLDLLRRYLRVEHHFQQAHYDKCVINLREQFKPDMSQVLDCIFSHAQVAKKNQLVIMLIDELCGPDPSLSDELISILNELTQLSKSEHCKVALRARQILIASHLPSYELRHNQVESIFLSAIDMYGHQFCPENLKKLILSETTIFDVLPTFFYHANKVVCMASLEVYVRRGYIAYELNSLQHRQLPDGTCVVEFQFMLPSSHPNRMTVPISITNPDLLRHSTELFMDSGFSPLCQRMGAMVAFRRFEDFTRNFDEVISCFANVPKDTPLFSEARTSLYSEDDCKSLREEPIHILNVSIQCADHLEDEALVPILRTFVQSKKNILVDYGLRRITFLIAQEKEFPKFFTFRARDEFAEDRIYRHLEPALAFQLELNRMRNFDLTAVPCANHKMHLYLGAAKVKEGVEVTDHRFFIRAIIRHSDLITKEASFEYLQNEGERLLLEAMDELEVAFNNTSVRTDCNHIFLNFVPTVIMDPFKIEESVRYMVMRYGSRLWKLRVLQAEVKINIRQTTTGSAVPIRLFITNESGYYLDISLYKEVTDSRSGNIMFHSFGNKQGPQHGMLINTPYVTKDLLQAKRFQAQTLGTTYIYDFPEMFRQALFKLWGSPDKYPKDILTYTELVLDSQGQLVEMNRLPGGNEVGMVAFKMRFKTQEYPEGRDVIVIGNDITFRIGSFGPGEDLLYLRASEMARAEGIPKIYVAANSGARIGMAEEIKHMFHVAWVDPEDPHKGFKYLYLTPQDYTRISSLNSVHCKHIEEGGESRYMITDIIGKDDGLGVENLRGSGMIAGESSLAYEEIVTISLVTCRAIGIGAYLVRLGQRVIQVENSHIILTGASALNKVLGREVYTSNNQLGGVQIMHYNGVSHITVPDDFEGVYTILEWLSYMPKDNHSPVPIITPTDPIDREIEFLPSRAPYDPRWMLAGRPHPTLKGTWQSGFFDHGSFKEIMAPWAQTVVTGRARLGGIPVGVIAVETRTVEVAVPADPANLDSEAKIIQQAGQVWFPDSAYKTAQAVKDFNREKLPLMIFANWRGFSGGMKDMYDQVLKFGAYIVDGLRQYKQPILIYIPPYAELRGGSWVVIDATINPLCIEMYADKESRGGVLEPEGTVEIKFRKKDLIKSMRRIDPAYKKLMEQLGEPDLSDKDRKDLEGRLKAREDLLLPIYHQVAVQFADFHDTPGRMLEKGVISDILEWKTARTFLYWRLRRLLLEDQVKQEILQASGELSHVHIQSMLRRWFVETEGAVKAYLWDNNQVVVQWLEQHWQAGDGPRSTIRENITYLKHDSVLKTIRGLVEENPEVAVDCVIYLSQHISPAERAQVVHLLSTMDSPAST

Consider `COc1ccccc1[C@H](Cn1c(=O)n(C(C)(C)C(=O)NC(C)C)c(=O)c2c(C)c(-n3nccn3)sc21)O[C@H]1CC[C@@H](O)CC1` [Compound I-217], for which the values for the IC50 against human (hACC2) and on fungal (fACC2) were 5 to 10 nM and 0.3 to 1 nM, respectively. Moreover, the MIC with C. albicans (setting [5]) was 0.25 to 1 µg/mL (≈ 0.4 to 1.6 µM); in the assay with C. krusei (setting [6]), 0.06 to 0.249 µg/mL (≈ 0.096 to 0.399 µM); in the assay on C. parapsilosis (setting [7]) it was 0.25 to 1 µg/mL (≈ 0.4 to 1.6 µM). The IC90 in the assay with Botrtyis cinerea (Bc) (setting [8]) is 0.4 µg/mL (≈ 0.64 µM); in assay [1] (setting [9]) it was 2 µg/mL (≈ 3.2 µM); in the assay with Diplodia maydis (Dm) (setting [10]), 2 µg/mL (≈ 3.2 µM); in assay [2], 0.08 µg/mL (≈ 0.128 µM); in assay [3] (setting [11]) it was 0.4 µg/mL (≈ 0.64 µM); in [4] (setting [12]), > 50 µg/mL. Further, the results for the IC90 with Rhizoctonia solani (Rs) (setting [13]) and in the assay on Septoria tritici (St) (setting [14]) were 0.08 µg/mL (≈ 0.128 µM) and > 50 µg/mL, respectively.

`COc1ccc(F)cc1[C@H](Cn1c(=O)n(C(C)(C)C(=O)NC(C)C)c(=O)c2c(C)c(-n3nccn3)sc21)OCCC(=O)NO` [Compound I-218]: the IC50 against human (hACC2) is 10 to 40 nM; on fungal (fACC2), 1 to 5 nM. Further, the MIC in the assay on C. albicans (setting [5]), with C. krusei (setting [6]) and in the assay on C. parapsilosis (setting [7]) was 0.25 to 1 µg/mL (≈ 0.396 to 1.58 µM) throughout. Further, the IC90 was 2 µg/mL (≈ 3.17 µM) with Botrtyis cinerea (Bc) (setting [8]); 10 µg/mL (≈ 15.8 µM) in assay [1] (setting [9]); 10 µg/mL (≈ 15.8 µM) with Diplodia maydis (Dm) (setting [10]); 2 µg/mL (≈ 3.17 µM) in [2]; 2 µg/mL (≈ 3.17 µM) in assay [3] (setting [11]); > 50 µg/mL in [4] (setting [12]). Further, the values for the IC90 in the assay with Rhizoctonia solani (Rs) (setting [13]) and in the assay with Septoria tritici (St) (setting [14]) were 2 µg/mL (≈ 3.17 µM) and > 50 µg/mL, respectively.

On to `Cc1c(-n2nccn2)sc2c1c(=O)n(C(C)(C)C(=O)NC1CCC1)c(=O)n2C[C@H](OC(C)C)c1cc(F)ccc1OCC#N` [Compound I-221], for which the IC50 against human (hACC2) is 5 to 10 nM; at fungal (fACC2) it was 0.3 to 1 nM. Further, the results for the MIC with C. albicans (setting [5]), in the assay with C. krusei (setting [6]) and in the assay with C. parapsilosis (setting [7]) were 1.01 to 2 µg/mL (≈ 1.62 to 3.21 µM), 0.25 to 1 µg/mL (≈ 0.401 to 1.6 µM) and 0.25 to 1 µg/mL (≈ 0.401 to 1.6 µM), respectively. The IC90 is 0.4 µg/mL (≈ 0.641 µM) in the assay with Botrtyis cinerea (Bc) (setting [8]); 2 µg/mL (≈ 3.21 µM) in assay [1] (setting [9]); 2 µg/mL (≈ 3.21 µM) in the assay with Diplodia maydis (Dm) (setting [10]); 0.08 µg/mL (≈ 0.128 µM) in assay [2]; 0.4 µg/mL (≈ 0.641 µM) in assay [3] (setting [11]); > 50 µg/mL in assay [4] (setting [12]). In addition, the IC90 in the assay on Rhizoctonia solani (Rs) (setting [13]) was 0.4 µg/mL (≈ 0.641 µM); in the assay with Septoria tritici (St) (setting [14]) it was > 50 µg/mL.

`Cc1c(-n2nccn2)sc2c1c(=O)n(C(C)(C)C(=O)NC(C)C)c(=O)n2C[C@H](O[C@H]1CC[C@@H](O)CC1)c1cc(F)ccc1OCC#N` [Compound I-222]: the IC50 was in the range of 5 to 10 nM against human (hACC2) and 0.3 to 1 nM on fungal (fACC2). Further, the MIC with C. albicans (setting [5]), in the assay on C. krusei (setting [6]) and with C. parapsilosis (setting [7]) was 0.25 to 1 µg/mL (≈ 0.374 to 1.5 µM) in each case. Also, the IC90 in the assay on Botrtyis cinerea (Bc) (setting [8]) was 2 µg/mL (≈ 3 µM); in assay [1] (setting [9]), 2 µg/mL (≈ 3 µM); in the assay on Diplodia maydis (Dm) (setting [10]), 0.4 µg/mL (≈ 0.599 µM); in [2] it was 0.08 µg/mL (≈ 0.12 µM); in assay [3] (setting [11]), 2 µg/mL (≈ 3 µM); in assay [4] (setting [12]) it was > 50 µg/mL. In addition, the IC90 in the assay on Rhizoctonia solani (Rs) (setting [13]) is 0.4 µg/mL (≈ 0.599 µM); in the assay on Septoria tritici (St) (setting [14]), > 50 µg/mL.

As to `COc1ccc(C#N)cc1[C@H](Cn1c(=O)n(C(C)(C)C(=O)NC(C)C)c(=O)c2c(C)c(-n3nccn3)sc21)OCC(C)(C)C#N` [Compound I-223], the figures for the IC50 against human (hACC2) and at fungal (fACC2) were 10 to 40 nM and 1 to 5 nM, respectively. The minimum inhibitory concentration (MIC) with C. albicans (Table 3b (additional results), ATCC 90028, 3 replicates, MIC recorded at 48 h, read-out: MIC, C. albicans ATCC 90028) fell in the range of 0.25 to 1 µg/mL (≈ 0.395 to 1.58 µM); in the assay on C. krusei (Table 3b (additional results), ATCC 6258, 3 replicates, MIC recorded at 48 h, read-out: MIC, C. krusei ATCC 6258), 0.25 to 1 µg/mL (≈ 0.395 to 1.58 µM); in the assay with C. parapsilosis (Table 3b (additional results), ATCC 22019, 3 replicates, MIC recorded at 48 h, read-out: MIC, C. parapsilosis ATCC 22019) it was 1.01 to 2 µg/mL (≈ 1.6 to 3.16 µM). Besides, the IC90 in the assay with Botrtyis cinerea (Bc) (Botrtyis cinerea, read-out: Concentration at 90% Inhibition Bc) is 10 µg/mL (≈ 15.8 µM); in assay [1] (Collectotrichum graminicola, read-out: Concentration at 90% Inhibition Cg), > 50 µg/mL; in the assay with Diplodia maydis (Dm) (Diplodia maydis, read-out: Concentration at 90% Inhibition Dm) it was > 50 µg/mL; in [2] (Fusarium moniliforme, growth inhibition at 48 hours vs 2% DMSO control), 0.4 µg/mL (≈ 0.632 µM); in [3] (growth inhibition at 48 hours vs 2% DMSO control, read-out: Concentration at 90% Inhibition Fv), 10 µg/mL (≈ 15.8 µM); in [4] (growth inhibition at 48 hours vs 2% DMSO control, read-out: Concentration at 90% Inhibition Pc), > 50 µg/mL. In addition, the IC90 with Rhizoctonia solani (Rs) (mycelial plugs, growth inhibition at 48 hours vs 2% DMSO control, read-out: Concentration at 90% Inhibition Rs) is 2 µg/mL (≈ 3.16 µM); with Septoria tritici (St) (Septoria tritici, read-out: Concentration at 90% Inhibition St) it was > 50 µg/mL.

The values are drawn from patent US10800791B2, “Triazole ACC inhibitors and uses thereof” (Gilead Apollo, LLC, priority 2015, dated 2020).
